# Key:
# [1] = logP determination by reversed-phase HPLC (EEC Directive 79/831 Annex V.A8), acidic range; type: physicochemical; details: for chromatographic logP: pH 2, HPLC, C18 reversed-phase column, read-out: logP (pH 2)
# Method: The logP values given in the table were determined in accordance with EEC Directive 79/831 Annex V.A8 by HPLC (High Performance Liquid Chromatography) using a reversed-phase column (C 18). Temperature: 43° C.
# (a) Mobile phases for the determination in the acidic range: 0.1% phosphoric acid, acetonitrile; linear gradient from 10% acetonitrile to 90% acetonitrile—the corresponding measurement results in Table 1 are marked a).
# Calibration was carried out using unbranched alkan-2-ones (having 3 to 16 carbon atoms) with known logP values (determination of the logP values by the retention times using linear interpolation between two successive alkanones).
# weeds [2] = experiment: Post-emergence test (herbicidal action); type: in vivo; details: test plants of 5-15 cm sprayed, rated after three weeks
# Method: Post-Emergence Test (Herbicidal Action)
# (§1) To produce a suitable preparation of active compound, 1 part by weight of active compound is mixed with the stated amount of solvent, the stated amount of emulsifier is added and the concentrate is diluted with water to the desired concentration.
# Test plants of a height of 5-15 cm are sprayed with the preparation of active compound such that the particular amounts of active compound desired are applied per unit area. The concentration of the spray liquor is chosen such that the particular amounts of active compound desired are applied in 1000 l of water/ha.
# (§2) After three weeks, the degree of damage to the plants is rated in % damage in comparison to the development of the untreated control.
# weeds [3] = experiment: Pre-emergence test (herbicidal action); type: in vivo; details: soil sprayed 24 hours after sowing, rated after three weeks
# Method: Pre-Emergence Test (Herbicidal Action)
# as §1
# Seeds of the test plants are sown in normal soil. After 24 hours, the soil is sprayed with the preparation of active compound such that the particular amount of active compound desired is applied per unit area. The concentration of active compound in the spray liquor is chosen such that the particular amount of active compound desired is applied in 1000 litres of water per hectare.
# as §2
# Meloidogyne incognita = experiment: Meloidogyne test (nematicidal action); type: in vivo; details: Meloidogyne incognita egg/larvae suspension, lettuce in sand
# Method: Meloidogyne Test (Nematicidal Action)
# To produce a suitable preparation of active compound, 1 part by weight of active compound is mixed with the stated amounts of solvent and emulsifier, and the concentrate is diluted with water to the desired concentration.
# Vessels are filled with sand, solution of active compound, Meloidogyne incognita egg/larvae suspension and lettuce seeds. The lettuce seeds germinate and the plants develop. On the roots, galls are formed.
# After the desired period of time, the nematicidal action is determined in % by the formation of galls. 100% means that no galls have been found; 0% means that the number of galls on treated plants corresponds to that of the untreated control.
SMILES,chromatographic logP [1],melting point [°C],herbicidal action against weeds (degree of damage) (weeds [2]),herbicidal action against weeds (degree of damage) (weeds [3]),"logP a) (Table 1, Physical data) [1]",nematicidal action (formation of galls) (Meloidogyne incognita)
"O=c1[nH]c(C2CC2)nc2c1cnn2-c1ncc(C(F)(F)F)cc1Cl [Example 5, 1-(3-chloro-5-trifluoromethylpyridin-2-yl)-6-cyclopropyl-1,5-dihydropyrazolo[3,4-d]pyrimidin-4-one]",2.19,239,,,,
"O=c1[nH]c(C2(F)CC2)nc2c1cnn2-c1ncc(C(F)(F)F)cc1Cl [Example 6, 6-(1-fluorocyclopropyl)-1-(3-chloro-5-trifluoromethylpyridin-2-yl)-1,5-dihydropyrazolo[3,4-d]pyrimidin-4-one]",2.29,211,strong action against weeds,,,
CCc1nc2c(cnn2-c2ncc(C(F)(F)F)cc2Cl)c(=O)n1C [Example 16],,,strong action against weeds,strong action against weeds,(I) logP = 2.46^a),good activity
Cn1c(C2CC2)nc2c(cnn2-c2ncc(Cl)cc2Cl)c1=O [Example 80],,,strong action against weeds,strong action against weeds,(I) logP = 2.30^a),good activity
"NC(=O)c1cnn(-c2ncc(C(F)(F)F)cc2Cl)c1N [II-1, 5-amino-1-(3-chloro-5-trifluoromethylpyridin-2-yl)pyrazole-4-carboxamide]",1.46,196,,,,
"NC(=O)c1cnn(-c2ncc(C(F)(F)F)cc2Cl)c1NC(=O)C1(F)CC1 [VI-1, 5-(1-fluorocyclopropylcarbonylamino)-1-(3-chloro-5-trifluoromethylpyridin-2-yl)pyrazole-4-carboxamide]",2.02,204,,,,

# Reference: patent US20050209251A1, “Substituted pyrazolo-pyrimidine-4-ones” (priority 2002, published 2005)
